The source of these data is patent EP4741383A1, “COMPOUND AND USE THEREOF AS ANTI-CANCER DRUG” (Tyligand Bioscience (Shanghai) Limited, priority 2023, dated 2025).

Each structure is given as a SMILES string. pIC50: −log10 of the molar value.

In one test the test system is KYSE520. In words: CellTiter-Glo cell proliferation inhibition, KYSE520. It is filed as cell-based, human. The note with it: Homo sapiens, KYSE-520; KYSE520 cells, 120 hours, CellTiter-Glo. The text has this: In this study, the CellTiter-Glo® Luminescent Cell Viability Assay kit from Promega was used to evaluate the inhibitory effects of the disclosed compounds on the proliferation of cell lines KYSE520 (a human esophageal squamous cell carcinoma cell line dependent on SHP2 for growth), MeWo (a human malignant melanoma cell line), and MV4-11 (an RTK-mutant human acute monocytic leukemia cell line).
KYSE520 cells (Nanjing Kebaio Biotechnology Co., Ltd., Catalog #CBP60658) were thawed by rapidly shaking the cryovial in a 37 °C water bath to thaw within 1 minute. The thawed cell suspension was mixed homogeneously with RPMI 1640 medium (HyClone, Catalog #SH30027.01) containing 10% FBS (ExCell, Catalog #FND500), centrifuged at 1000 rpm for 5 minutes, and the supernatant was discarded. The cell pellet was resuspended in 5 mL of complete culture medium (RPMI 1640 medium containing 10% FBS) and placed in a cell culture flask with 25 cm^2 of bottom area, then cultured in a cell culture incubator at 37 °C, 95% humidity, and 5% CO2. Cell passaging was performed when the cell confluence reached approximately 80%. During cell passaging, the old culture medium was discarded, the cells were washed once with DPBS (Thermo Fisher, Catalog #14190-144), and 1 mL of trypsin (Thermo Fisher, Catalog #25200072) was added to digest the cells. When the cells dispersed into single cells and detached from the bottom of the culture flask, 3 mL of fresh complete culture medium was added to stop the digestion. After gently pipetting the cell suspension, 1/5 of the cell suspension was retained, 5 mL of fresh complete culture medium was added, and after mixing, the cells were placed in a cell culture flask for further culture. Cell plating was performed when the cell confluence again reached approximately 80%. During cell plating, following the cell passaging method, 1/5 of the cell suspension was retained for continued culture, and the remaining 4/5 of the cell suspension was placed in a 15 mL centrifuge tube. Cell viability was determined using the trypan blue exclusion method to ensure that cell viability was above 90%. A cell suspension with a density of 2.22 × 10^4 cells/mL was prepared using complete culture medium, and 135 µL of the cell suspension was added to a 96-well transparent flat-bottom black-walled cell culture plate (Greiner, Catalog #655090), resulting in a cell density of 3000 viable cells per well. A control group containing only complete culture medium without cells and compounds (i.e., culture medium control) and a control group containing cells but no compound (i.e., cell control) were set up. The cell plates were incubated overnight in a cell culture incubator. First, a 10 mM stock solution of the compound (Example compound and positive control compound 11a-1) in DMSO (Damas-beta, catalog #75927R) was serially diluted 3-fold to the 9th concentration, and a 10th concentration containing only DMSO (without compound) was also prepared as a control. Then, the DMSO solutions containing different concentrations of the compound were diluted 100-fold with complete culture medium, resulting in a 1% DMSO concentration in each solution. Finally, 15 µL of each solution was added to the corresponding wells of the cell culture plate, resulting in a starting compound concentration of 10 µM, with a 3-fold dilution between adjacent concentrations, and a final DMSO concentration of 0.1% in the cell culture plate. The cell plates were then incubated in the cell culture incubator for another 120 hours.
For endpoint detection, CellTiter-Glo reagent (Promega, catalog number #G7573, CellTiter-Glo® Luminescent Cell Viability Assay Kit) was melt and each cell plate was moved to room temperature for equilibration for 30 minutes. 75 µL (KYSE520 cells) or 50 µL (MeWo cells and MV 4-11 cells) of CellTiter-Glo was added to each well of the corresponding cell plate. The plates were shaken on a track-mounted shaker for 2 minutes to fully lyse the cells. […]
On the technique in general: ATP-based viability assays read luminescence as a measure of living cells.

Test [1] addresses T1, SHP2 enzyme (catalytic domain, amino acid sequence 224-528) (Homo sapiens, UniProt Q06124).
T1 construct: purchased GenScript
T1 sequence (Q06124 224-528): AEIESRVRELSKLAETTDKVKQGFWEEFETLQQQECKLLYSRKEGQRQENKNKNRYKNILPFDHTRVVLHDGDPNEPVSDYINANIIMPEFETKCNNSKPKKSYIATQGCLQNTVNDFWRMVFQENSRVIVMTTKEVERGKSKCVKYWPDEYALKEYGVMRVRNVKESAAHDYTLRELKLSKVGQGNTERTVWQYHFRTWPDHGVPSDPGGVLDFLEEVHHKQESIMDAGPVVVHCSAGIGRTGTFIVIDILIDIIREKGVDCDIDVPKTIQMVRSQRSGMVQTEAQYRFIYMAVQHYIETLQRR
In words: SHP2 enzyme inhibition assay (DiFMUP substrate, fluorescence). It is filed as biochemical. To be noted: for pIC50: SHP2 catalytic domain, DiFMUP substrate, 30 min pre-incubation, read-out: S HP2 I C50; for SHP2 IC50 times lower than control compound 11a-1: relative to 11a-1, IC50 = 0.108 µM. How it is done:
This experiment evaluates the inhibitory effect of the test compounds on SHP2 enzyme activity by detecting the reaction between the human recombinant protein SHP2 enzyme and the substrate.
The stock solutions of the reaction buffer components were thawed and mixed homogeneously at room temperature, to prepare the reaction buffer (55 mM HEPES pH = 7.2 (Sigma, Cat. No. #PHR1428), 100 mM NaCl (Beyotime, Cat. No. #ST374, 5 M solution), 0.5 mM EDTA (Beyotime, Cat. No. #ST066), 1 mM DL-Dithiothreitol (DTT) (Sigma, Cat. No. #D9779), 0.002% BSA (Solarbio, Cat. No. #A8010), 0.001% Brij35 (Brij® L23 solution (Brij35) (Sigma, Cat. No. #B4184)). The SHP2 enzyme (catalytic domain, amino acid sequence 224-528, expressed and purified by GenScript) was thawed slowly on ice. 1 µL of this solution (1.37 mg/mL) was added to 386 µL of the reaction buffer to dilute it to 100 nM. Then, 120 µL of the 100 nM SHP2 enzyme solution was added to 2880 µL of reaction buffer to prepare a 4 nM SHP2 enzyme working solution. The test compounds and the specific inhibitor of SHP2 (11a-1, used as a positive control, Zeng, L. et al., J. Med. Chem. 2014, 57, 6594-6609) were prepared as 10 mM DMSO solutions. 10 µL of the 10 mM compound solution was mixed with 20 µL of DMSO solution, and then serially diluted 3-fold, resulting in 10 concentrations. 1 µL of the serially diluted solution was mixed with 99 µL of reaction buffer to obtain a 10-fold diluted compound working solution.
A 96-well black half-area microplate (Greiner, catalog #675076) was used. 25 µL of 4 nM SHP2 enzyme working solution and 5 µL of 10x compound working solution were added to each well and incubated at room temperature for 30 minutes. 15 µL of DiFMUP substrate (Thermo Fisher Scientific, catalog #D6567) was added to 2985 µL of reaction buffer to prepare a 50 µM substrate working solution. After incubation of the compounds and SHP2 enzyme, 20 µL of the 50 µM substrate working solution was added to each well and incubated at room temperature for 5 minutes. The plate was then read on a multi-mode microplate reader (BioTek, Synergy H1) at 340 nm/450 nm fluorescence.
Data were analyzed using GraphPad Prism 9.0 software. A non-linear S-curve regression dose-response-inhibition equation was used to fit the data and generate the dose-response curve, from which the IC50 value was calculated. [formula]

On to `CC1(n2c(-c3ccc(NC(=O)C(=O)Nc4ccc(N5CC6(CCOCC6)C5)cc4)cc3)cc3cc(F)c(-c4nnn[nH]4)cc32)CCC1` [Example 58], for which, in the test with KYSE520, 0.125 µM corresponded to half-maximal inhibition (IC50). Moreover, in test [1], the pIC50 is 7.51 and the “SHP2 IC50 times lower than control compound 11a-1” value is recorded as 3-4 times.

Take `CC1(n2c(-c3ccc(NC(=O)C(=O)Nc4ccc(N5CC6CC(CO)CC6C5)cc4)cc3)cc3cc(F)c(-c4nnn[nH]4)cc32)CCC1` (centres unmarked) [Example 120]: inhibition with KYSE520 was half-maximal at 0.115 µM (IC50). The pIC50 in test [1] is 7.26.

In the test with KYSE520, `CC1(O)CCC2(CCN(c3ccc(NC(=O)C(=O)Nc4ccc(-c5cc6cc(F)c(-c7nnn[nH]7)cc6n5C5CCC5)cc4)cc3)CC2)C1` (centres unmarked) [Example 104] returned an IC50 of 0.125 µM. Besides, the pIC50 in test [1] is 7.15.

Consider `C[C@@H](O)C1CCN(c2ccc(NC(=O)C(=O)Nc3ccc(-c4cc5cc(F)c(-c6nnn[nH]6)cc5n4C4(C)CCC4)cc3)cc2)CC1` [Example 30], for which inhibition with KYSE520 was half-maximal at 0.192 µM (IC50). Besides, the pIC50 in test [1] is 7.07.

On to `CC1(n2c(-c3ccc(NC(=O)C(=O)Nc4ccc(N5CC6(CCC(O)CC6)C5)cc4)cc3)cc3cc(F)c(-c4nnn[nH]4)cc32)CCC1` [Example 82], for which the IC50 in the test with KYSE520 was 0.097 µM. Besides, in test [1], the pIC50 was 7.52 and the “SHP2 IC50 times lower than control compound 11a-1” value was 3-4 times.

In the test with KYSE520, `CCC(O)C1CCN(c2ccc(NC(=O)C(=O)Nc3ccc(-c4cc5cc(F)c(-c6nnn[nH]6)cc5n4C4CCC4)cc3)cc2)CC1` (centres unmarked) [Example 31] had an IC50 of 0.116 µM. In addition, the pIC50 in test [1] is 7.06.

Regarding `CC(C)(O)C1CCN(c2ccc(NC(=O)C(=O)Nc3ccc(-c4cc5cc(F)c(-c6nnn[nH]6)cc5n4Cc4ccccc4)cc3)cc2)CC1` [Example 36], half-maximal inhibition in the test with KYSE520 (IC50) was put at 0.12 µM. Besides, the pIC50 in test [1] was 7.28.

In turn, `CC1(n2c(-c3ccc(NC(=O)C(=O)Nc4ccc(N5CC6COCC6C5)cc4)cc3)cc3cc(F)c(-c4nnn[nH]4)cc32)CCC1` (centres unmarked) [Example 115] gave an IC50 in the test on KYSE520 of 0.11 µM. Besides, in test [1], the pIC50 was 7.44 and the “SHP2 IC50 times lower than control compound 11a-1” value was 3-4 times.

For the molecule `CC1(n2c(-c3ccc(NC(=O)C(=O)Nc4ccc(N5CCC6(CCCOC6)CC5)cc4)cc3)cc3cc(F)c(-c4nnn[nH]4)cc32)CCC1` [Example 75], 0.103 µM corresponded to half-maximal inhibition in the test with KYSE520 (IC50). Moreover, in test [1], the pIC50 was 7.47 and the “SHP2 IC50 times lower than control compound 11a-1” value is listed as 3-4 times.

Regarding `O=C(Nc1ccc(-c2cc3cc(F)c(-c4nnn[nH]4)cc3n2C2CCC2)cc1)C(=O)Nc1ccc(N2CCC(F)(CO)C2)cc1` (centres unmarked) [Example 17], the 50% inhibitory concentration (IC50) with KYSE520 stood at 0.185 µM. The pIC50 in test [1] is 6.92.

As to `O=C(Nc1ccc(-c2cc3cc(F)c(-c4nnn[nH]4)cc3n2C2CCC2)cc1)C(=O)Nc1ccc(N2CCC3(CCC(CO)C3)CC2)cc1` (centres unmarked) [Example 106], in the test with KYSE520, the IC50 came out at 0.11 µM. Moreover, the pIC50 in test [1] was 6.99.

Broadly, the IC50 is the concentration at which inhibition is half-maximal.
